One may read the Ki as a measure of affinity in units of concentration, obtained from inhibition or displacement. The EC50 is the concentration giving half of the maximal effect. For orientation: Emax means the size of the effect at its maximum, as opposed to the concentration needed.

The values that follow come from patent US20230265151A1, “GIP/GLP1 CO-AGONIST COMPOUNDS” (priority 2020, published 2023).

Experiment [1] concerns the target T1, human GLP-1 receptor (hGLP-1R) (Homo sapiens, UniProt P43220).
T1 construct: expressed in transfected cells; crude membranes
Briefly: [125I]-GLP-1 binding, SPA with membranes of HEK293 cells expressing hGLP-1R.

In a further experiment the target is hGLP-1R (Homo sapiens, UniProt P43220). Kind of experiment: Functional cAMP formation (HTRF) in HEK-293 clonal cells expressing hGLP-1R, 0.1% bovine casein, without or with 1.0% human serum albumin. The class given is cell-based. Details: expressed in transfected cells. Particulars: for EC50: cAMP; for Emax: percent of maximal response to GLP-1(7-36)NH2. An outline of the steps: (§1)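 Readings of the HTRF 665/620 nm ratio, which falls as cAMP rises, were converted to nM cAMP using a standard curve after 30 min peptide exposure at 37° C.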
Chain of hGLP-1R (P43220 24-463): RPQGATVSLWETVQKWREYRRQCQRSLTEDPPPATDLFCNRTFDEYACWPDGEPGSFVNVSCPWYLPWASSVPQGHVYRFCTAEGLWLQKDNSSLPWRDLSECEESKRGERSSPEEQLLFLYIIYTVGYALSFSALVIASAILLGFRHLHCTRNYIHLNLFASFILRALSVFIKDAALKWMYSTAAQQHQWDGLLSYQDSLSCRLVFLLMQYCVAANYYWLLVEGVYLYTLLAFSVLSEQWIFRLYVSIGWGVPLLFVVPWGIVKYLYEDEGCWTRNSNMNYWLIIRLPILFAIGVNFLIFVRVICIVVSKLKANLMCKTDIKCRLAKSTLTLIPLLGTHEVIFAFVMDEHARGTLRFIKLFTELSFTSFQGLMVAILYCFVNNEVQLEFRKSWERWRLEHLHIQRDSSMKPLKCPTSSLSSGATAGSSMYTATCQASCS
A general note: Cyclic AMP is a second messenger, typically raised through Gs and lowered through Gi signalling.

In another experiment the target is T2, hGIPR (Homo sapiens, UniProt P48546).
T2 construct: expressed in transfected cells
T2 sequence (P48546 22-466): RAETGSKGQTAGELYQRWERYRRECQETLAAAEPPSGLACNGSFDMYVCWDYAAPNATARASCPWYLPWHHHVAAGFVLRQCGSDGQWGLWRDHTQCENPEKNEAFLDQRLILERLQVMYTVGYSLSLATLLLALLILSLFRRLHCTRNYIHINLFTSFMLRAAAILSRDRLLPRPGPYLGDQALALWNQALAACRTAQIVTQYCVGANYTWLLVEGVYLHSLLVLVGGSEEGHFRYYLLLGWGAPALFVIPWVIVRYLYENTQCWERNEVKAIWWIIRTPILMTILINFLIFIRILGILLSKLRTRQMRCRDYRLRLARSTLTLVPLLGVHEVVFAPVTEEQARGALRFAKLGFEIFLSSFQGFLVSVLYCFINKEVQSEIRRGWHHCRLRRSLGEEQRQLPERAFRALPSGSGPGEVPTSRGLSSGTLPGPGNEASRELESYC
Briefly: Functional cAMP formation (HTRF) in HEK-293 clonal cells expressing hGIPR, 0.1% bovine casein, without or with 1.0% human serum albumin. The class given is cell-based. Particulars: for Emax: percent of maximal response to GIP(1-42)NH2; for EC50: cAMP. An outline of the steps: as §1

The next experiment deals with T3, hGCGR (Homo sapiens, UniProt P47871).
T3 construct: expressed in transfected cells
T3 sequence (P47871 26-477): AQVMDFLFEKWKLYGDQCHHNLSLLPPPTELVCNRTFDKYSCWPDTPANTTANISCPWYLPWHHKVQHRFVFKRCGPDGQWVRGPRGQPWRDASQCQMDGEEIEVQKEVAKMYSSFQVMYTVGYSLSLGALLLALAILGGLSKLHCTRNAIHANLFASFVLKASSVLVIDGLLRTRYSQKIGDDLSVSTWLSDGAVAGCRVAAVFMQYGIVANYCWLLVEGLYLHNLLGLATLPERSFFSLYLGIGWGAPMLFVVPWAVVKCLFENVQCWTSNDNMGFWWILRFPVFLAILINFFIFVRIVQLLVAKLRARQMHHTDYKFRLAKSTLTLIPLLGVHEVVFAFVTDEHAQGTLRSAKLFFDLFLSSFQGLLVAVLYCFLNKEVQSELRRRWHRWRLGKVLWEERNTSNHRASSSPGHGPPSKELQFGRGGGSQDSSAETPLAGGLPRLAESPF
Kind of experiment: Functional cAMP formation (HTRF) in HEK-293 clonal cells expressing hGCGR, 0.1% bovine casein, without or with 1.0% human serum albumin. The class given is cell-based. The following applies: cAMP, 37° C. An outline of the steps: as §1

Setting [2] is: human GLP-1R, geometric mean (SEM, n), read-out: Binding Affinity Ki, nM (SEM, n) hGLP-1R.
Setting [3] is: 37° C., 0.1% bovine casein (no human serum albumin), geometric mean, read-out: hGLP-1R EC50, nM (SEM, n).
Setting [4] is: 37° C., 0.1% bovine casein (no human serum albumin), geometric mean, read-out: hGIPR EC50, nM (SEM, n).
Where [5] appears, read: 0.1% bovine casein (no human serum albumin), geometric mean, read-out: hGCGR EC50, nM (SEM, n).
The mark [6] stands for this setting: 0.1% bovine casein and 1.0% human serum albumin, geometric mean (SEM, n), read-out: hGCGR EC50, nM (SEM, n).
[7] abbreviates: HEK293, read-out: hGLP-1R Emax, % ± SEM, cAMP, 37° C., 0.1% bovine casein and 1.0% human serum albumin.
The mark [8] stands for this setting: hGLP-1R EC50, nM (SEM, n), 37° C., 0.1% bovine casein (no human serum albumin), geometric mean.
Where [9] appears, read: HEK293, read-out: hGIPR Emax, % ± SEM, cAMP, 37° C., 0.1% bovine casein and 1.0% human serum albumin.
Where [10] appears, read: hGIPR EC50, nM (SEM, n), 37° C., 0.1% bovine casein (no human serum albumin), geometric mean.
[11] abbreviates: hGCGR EC50, nM (SEM, n), 0.1% bovine casein (no human serum albumin), geometric mean.
The mark [12] stands for this setting: hGCGR EC50, nM (SEM, n), 0.1% bovine casein and 1.0% human serum albumin, geometric mean (SEM, n).

Like-named read-outs stand apart in the source and are kept apart here.

T1 sequence (P43220 24-463): as the sequence (P43220 24-463) above

Take `CCCCCCCCCCCC(=O)N[C@@H](CCC(=O)NCCOCCOCC(=O)NCCOCCOCC(=O)NCCOCCOCC(=O)NCCCC[C@H](NC(=O)[C@H](CCCN)NC(=O)[C@H](CC(=O)O)NC(=O)[C@H](CC(C)C)NC(=O)[C@](C)(CC(C)C)NC(=O)[C@@H](NC(=O)C(C)(C)NC(=O)[C@H](Cc1ccncc1)NC(=O)[C@H](CC(=O)O)NC(=O)[C@H](CO)NC(=O)[C@@H](NC(=O)[C@](C)(Cc1ccccc1F)NC(=O)[C@@H](NC(=O)CNC(=O)[C@H](CCC(=O)O)NC(=O)C(C)(C)NC(=O)[C@@H](N)Cc1ccc(O)cc1)[C@@H](C)O)[C@@H](C)O)[C@@H](C)CC)C(=O)N[C@@H](C)C(=O)N[C@@H](CCC(N)=O)C(=O)NC(C)(C)C(=O)N[C@@H](CCCN)C(=O)N[C@@H](Cc1ccccc1)C(=O)N[C@H](C(=O)N[C@H](CCC(=O)O)C(=O)N[C@@](C)(Cc1ccc(O)cc1)C(=O)N[C@@H](CC(C)C)C(=O)N[C@H](C(=O)N[C@@H](CCCCNC(=O)COCCOCCNC(=O)COCCOCCNC(=O)COCCOCCNC(=O)CC[C@H](NC(=O)CCCCCCCCCCC)C(=O)O)C(=O)NCC(=O)NCC(=O)N1CCC[C@H]1C(=O)N[C@@H](CO)C(=O)N[C@@H](CO)C(=O)NCC(=O)N[C@@H](C)C(=O)N1CCC[C@H]1C(=O)N1CCC[C@H]1C(=O)N1CCC[C@H]1C(=O)N[C@@H](CO)C(N)=O)[C@@H](C)CC)[C@@H](C)CC)C(=O)O` [Example 434]: the Ki in experiment [1] (setting [2]) came out at 0.15 nM. In addition, the EC50 at hGLP-1R (setting [3]) is 0.0837 nM; at hGLP-1R (37° C., 0.1% bovine casein and 1.0% human serum albumin, geometric mean (SEM, n), read-out: hGLP-1R EC50, nM (SEM, n)) it was 1.73 nM; at hGIPR (setting [4]), 0.00704 nM; at hGCGR (setting [5]), > 9950 nM; at hGCGR (setting [6]), > 9950 nM. Besides, the Emax at hGIPR (HEK293, cAMP, 37° C., 0.1% bovine casein and 1.0% human serum albumin, read-out: hGIPR Emax, % ± SEM) stood at 97.5%; on hGIPR (HEK293, cAMP, 37° C., 0.1% bovine casein, arithmetic mean, read-out: hGIPR Emax, % ± SEM) it was 98.3%.
As for `CC[C@H](C)[C@H](NC(=O)[C@H](CC(C)C)NC(=O)[C@](C)(Cc1ccc(O)cc1)NC(=O)[C@H](CCCCNC(=O)CCOCCOCCOCCOCCNC(=O)CC[C@H](NC(=O)CCCCCCCCCCCCC(=O)O)C(=O)O)NC(=O)[C@@H](NC(=O)[C@H](Cc1ccccc1)NC(=O)[C@H](CCCN)NC(=O)C(C)(C)NC(=O)[C@H](CCC(N)=O)NC(=O)[C@H](C)NC(=O)[C@H](CCC(N)=O)NC(=O)[C@H](CCCN)NC(=O)[C@H](CC(=O)O)NC(=O)[C@H](CC(C)C)NC(=O)[C@](C)(CC(C)C)NC(=O)[C@@H](NC(=O)C(C)(C)NC(=O)[C@H](Cc1ccncc1)NC(=O)[C@H](CC(=O)O)NC(=O)[C@H](CO)NC(=O)[C@@H](NC(=O)[C@](C)(Cc1ccccc1F)NC(=O)[C@@H](NC(=O)CNC(=O)[C@H](CCC(=O)O)NC(=O)C(C)(C)NC(=O)[C@@H](N)Cc1ccc(O)cc1)[C@@H](C)O)[C@@H](C)O)[C@@H](C)CC)[C@@H](C)CC)C(=O)N[C@@H](CCCCNC(=O)CCOCCOCCOCCOCCNC(=O)CC[C@H](NC(=O)CCCCCCCCCCCCC(=O)O)C(=O)O)C(=O)NCC(=O)NCC(=O)N1CCC[C@H]1C(=O)N[C@@H](CO)C(=O)N[C@@H](CO)C(=O)NCC(=O)N[C@@H](C)C(=O)N1CCC[C@H]1C(=O)N1CCC[C@H]1C(=O)N1CCC[C@H]1C(=O)N[C@@H](CO)C(N)=O` [Example 457], the Ki in experiment [1] (setting [2]) was 0.252 nM. In addition, the Emax on hGLP-1R (HEK293, cAMP, 37° C., 0.1% bovine casein, arithmetic mean, read-out: hGLP-1R Emax, % ± SEM) stood at 119%. The EC50 at hGLP-1R (setting [3]) was 0.185 nM; on hGIPR (setting [4]) it was 0.0106 nM; at hGCGR (setting [5]), > 9950 nM; on hGCGR (setting [6]), > 9950 nM.
Take `CC[C@H](C)[C@H](NC(=O)[C@H](CC(C)C)NC(=O)[C@](C)(Cc1ccc(O)cc1)NC(=O)[C@H](CCCCNC(=O)CCOCCOCCOCCOCCNC(=O)CC[C@H](NC(=O)CCCCCCCCCOc1ccc(C(=O)O)cc1)C(=O)O)NC(=O)[C@@H](NC(=O)[C@H](Cc1ccccc1)NC(=O)[C@H](CCCN)NC(=O)C(C)(C)NC(=O)[C@H](CCC(N)=O)NC(=O)[C@H](C)NC(=O)[C@H](CCC(N)=O)NC(=O)[C@H](CCCN)NC(=O)[C@H](CC(=O)O)NC(=O)[C@H](CC(C)C)NC(=O)[C@](C)(CC(C)C)NC(=O)[C@@H](NC(=O)C(C)(C)NC(=O)[C@H](Cc1ccncc1)NC(=O)[C@H](CC(=O)O)NC(=O)[C@H](CO)NC(=O)[C@@H](NC(=O)[C@](C)(Cc1ccccc1F)NC(=O)[C@@H](NC(=O)CNC(=O)[C@H](CCC(=O)O)NC(=O)C(C)(C)NC(=O)[C@@H](N)Cc1ccc(O)cc1)[C@@H](C)O)[C@@H](C)O)[C@@H](C)CC)[C@@H](C)CC)C(=O)N[C@@H](CCCCNC(=O)CCOCCOCCOCCOCCNC(=O)CC[C@H](NC(=O)CCCCCCCCCOc1ccc(C(=O)O)cc1)C(=O)O)C(=O)NCC(=O)NCC(=O)N1CCC[C@H]1C(=O)N[C@@H](CO)C(=O)N[C@@H](CO)C(=O)NCC(=O)N[C@@H](C)C(=O)N1CCC[C@H]1C(=O)N1CCC[C@H]1C(=O)N1CCC[C@H]1C(=O)N[C@@H](CO)C(N)=O` [Example 461]: the Ki in experiment [1] was determined as 0.14 nM. Moreover, the Emax on hGLP-1R (setting [7]) was 105%; on hGIPR (setting [9]), 98.5%; on hGIPR (HEK293, read-out: hGIPR Emax, % ± SEM, cAMP, 37° C., 0.1% bovine casein, arithmetic mean), 100%. The 50% effective concentration (EC50) at hGLP-1R (setting [8]) is 0.173 nM; on hGIPR (setting [10]), 0.0103 nM; on hGCGR (setting [11]), > 10100 nM; on hGCGR (setting [12]), > 10100 nM.
In experiment [1], `CC[C@H](C)[C@H](NC(=O)[C@H](CC(C)C)NC(=O)[C@](C)(Cc1ccc(O)cc1)NC(=O)[C@@H](CCC(=O)O)NC(=O)[C@@H](NC(=O)[C@H](Cc1ccccc1)NC(=O)[C@H](CCC(=O)O)NC(=O)C(C)(C)NC(=O)[C@H](CCC(N)=O)NC(=O)[C@H](C)NC(=O)[C@H](CCCCNC(=O)COCCOCCNC(=O)CC[C@H](NC(=O)CCCCCCCCCOc1ccc(C(=O)O)cc1)C(=O)O)NC(=O)[C@H](CCCN)NC(=O)[C@H](CC(=O)O)NC(=O)[C@H](CC(C)C)NC(=O)[C@](C)(CC(C)C)NC(=O)[C@@H](NC(=O)C(C)(C)NC(=O)[C@H](Cc1ccncc1)NC(=O)[C@H](CC(=O)O)NC(=O)[C@H](CO)NC(=O)[C@@H](NC(=O)[C@](C)(Cc1ccccc1F)NC(=O)[C@@H](NC(=O)CNC(=O)[C@H](CCC(=O)O)NC(=O)C(C)(C)NC(=O)[C@@H](N)Cc1ccc(O)cc1)[C@@H](C)O)[C@@H](C)O)[C@@H](C)CC)[C@@H](C)CC)C(=O)N[C@@H](CCCCNC(=O)COCCOCCNC(=O)CC[C@H](NC(=O)CCCCCCCCCOc1ccc(C(=O)O)cc1)C(=O)O)C(=O)NCC(=O)NCC(=O)N1CCC[C@H]1C(=O)N[C@@H](CO)C(=O)N[C@@H](CO)C(=O)NCC(=O)N[C@@H](C)C(=O)N1CCC[C@H]1C(=O)N1CCC[C@H]1C(=O)N1CCC[C@H]1C(=O)N[C@@H](CO)C(N)=O` [Example 361] came in with a Ki of 1.22 nM. Also, the Emax at hGLP-1R (setting [7]) turned out to be 98.8%; on hGLP-1R (HEK293, read-out: hGLP-1R Emax, % ± SEM, cAMP, 37° C., 0.1% bovine casein, arithmetic mean), 98.2%; on hGIPR (setting [9]), 88.8%. Also, the EC50 was 0.58 nM at hGLP-1R (setting [8]); 0.0121 nM on hGIPR (setting [10]); 1.44 nM at hGIPR (hGIPR EC50, nM (SEM, n), 37° C., 0.1% bovine casein and 1.0% human serum albumin, geometric mean (SEM, n)); > 9950 nM at hGCGR (setting [11]); > 9950 nM at hGCGR (setting [12]).
